Source: patent publication US10273239B2, “Spiro-lactam NMDA receptor modulators and uses thereof” (Aptinyx Inc., priority 2013, dated 2019)

Tests used:
[1] = biological target: T1, NMDA receptor (rat cortical membranes) (Rattus norvegicus, UniProt P35439); experiment: [3H] MK-801 binding assay (potentiation of [3H]MK-801 binding)
T1 construct: well washed rat cortical membranes (200 μg); from tissue; host or cells: rat cerebral cortex membranes
Protocol: Assays were conducted as described in Moskal et al. (Moskal, J. R., Kuo, A. G., Weiss, C., Wood, P. L., O'Connor Hanson, A., Kelso, S., Harris, R. B., Disterhoft, J. F., 2005. GLYX-13: a monoclonal antibody-derived peptide that acts as an N-methyl-D-aspartate receptor modulator. Neuropharmacology. 49, 1077-87) The potentiation of [^3H]MK-801 binding (5 nM; 22.5 Ci/mmol) to well washed rat cortical membranes (200 μg) was measured under non-equilibrium conditions (15 min @ 25° C.) in the presence of increasing concentrations of test compounds and 50 μM glutamate. Zero levels were determined in the absence of any glycine ligand and in the presence of 30 μM 5,7 DCKA. Maximal stimulation was measured in the presence of 1 mM glycine, and 50 μM glutamate was present in all samples. The facilitation of [^3H]MK-801 binding by tests compounds was calculated by using a 3 parameter log agonist vs. response equation (Graph pad Prism, USA) and potency (EC50, expressed in pM) and maximal activity (% maximal stimulation) were calculated for the test compound.

LTP = experiment: Unified Activity Data: LTP; conditions: LTP Concentration 1 uM
[2] = Unified Activity Data: Porsolt; format: in vivo; conditions: 3 mg/kg, IV, 1 hour post dose

Compound	EC50 [1]	Unified Activity Data: LTP Augmentation (Percent) (LTP)	Unified Activity Data: Porsolt Floating Time Inhibition (Percent) [2]
C[C@@H](O)[C@H](NC(=O)OC(C)(C)C)C(=O)N1CCCC12CNC2=O (stereo in doubt) [Compound 4S-FNL-2, tert-butyl (3-hydroxy-1-oxo-1-(1-oxo-2,5-diazaspiro [3.4]octan-5-yl)butan-2-yl)carbamate]	0.0553 nM		
C[C@@H](O)[C@H](N)C(=O)N1CCCC12CNC2=O (stereo partly drawn) [Compound 4S-FNL-1, 5-((2S,3R)-2-amino-3-hydroxybutanoyl)-2,5-diazaspiro [3.4] octan-1-one]		80%	70%
